Source: patent US9079919B2 (HOFFMANN-LA ROCHE INC., priority 2011, dated 2015)

What follows are compounds tested against T1, BACE1 (Homo sapiens, UniProt P56817) (assay: Cellular Aβ-lowering assay a) (Aβ40 ELISA)). Conditions: cellular assay a): HEK293 cells expressing human APP695, Aβ40 in supernatant by ELISA after 18-20 hrs; read-out: BACE1 cell act. Aβ40 IC50.
T1 construct: Human HEK293 cells which are stably transfected with a vector expressing a cDNA of the human APP wt gene (APP695); endogenous in cells; host or cells: HEK293 cells stably transfected with human APP695 (wt)
T1 sequence (P56817 46-501): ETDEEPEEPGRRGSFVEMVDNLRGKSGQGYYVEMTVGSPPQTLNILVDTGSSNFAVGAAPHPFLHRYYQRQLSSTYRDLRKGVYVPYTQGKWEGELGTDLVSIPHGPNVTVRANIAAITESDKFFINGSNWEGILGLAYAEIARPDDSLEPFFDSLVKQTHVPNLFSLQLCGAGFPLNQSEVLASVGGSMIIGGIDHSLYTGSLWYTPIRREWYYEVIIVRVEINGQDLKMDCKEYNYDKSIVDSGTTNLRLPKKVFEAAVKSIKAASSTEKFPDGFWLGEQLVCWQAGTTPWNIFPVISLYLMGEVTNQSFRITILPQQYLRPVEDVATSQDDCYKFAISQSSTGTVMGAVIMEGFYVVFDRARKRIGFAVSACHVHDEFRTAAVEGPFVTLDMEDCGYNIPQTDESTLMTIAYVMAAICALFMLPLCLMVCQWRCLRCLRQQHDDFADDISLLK
Assay type: cell-based
Protocol: a) Human HEK293 cells which are stably transfected with a vector expressing a cDNA of the human APP wt gene (APP695) were used to assess the potency of the compounds in a cellular assay. The cells were seeded in 96-well microtiter plates in cell culture medium (Iscove, plus 10% (v/v) fetal bovine serum, glutamine, penicillin/streptomycin) to about 80% confluence and the compounds were added at a 10× concentration in 1/10 volume of medium without FCS containing 8% DMSO (final concentration of DMSO was kept at 0.8% v/v). After 18-20 hrs incubation at 37° C. and 5% CO2 in a humidified incubator the culture supernatant was harvested for the determination of Aβ40 concentrations. 96 well ELISA plates (e.g., Nunc MaxiSorb) were coated with monoclonal antibody which specifically recognize the C-terminal end of Aβ40 (Brockhaus et al., NeuroReport 9, 1481-1486; 1998). After blocking of non-specific binding sites with e.g. 1% BSA and washing, the culture supernatants were added in suitable dilutions together with a horseradish peroxidase-coupled Aβ detection antibody (e.g., antibody 4G8, Senetek, Maryland Heights, Mo.) and incubated for 5 to 7 hrs. Subsequently the wells of the microtiter plate were washed extensively with Tris-buffered saline containing 0.05% Tween 20 and the assay was developed with tetramethylbenzidine/H2O2 in citric acid buffer. After stopping the reaction with one volume of 1N H2SO4 the reaction was measured in an ELISA reader at 450 nm wavelength. The concentrations of Aβ in the culture supernatants were calculated from a standard curve obtained with known amounts of pure Aβ peptide.

SMILES | IC50
N#Cc1ccc(C(=O)Nc2ccc3c(c2)[C@@]2(CCS3(=O)=O)N=C(N)OCC2(F)F)nc1 [Example 46, N-[(4R)-2-amino-5,5-difluoro-1′,1′-dioxido-2′,3′,5,6-tetrahydrospiro[1,3-oxazine-4,4′-thiochromen]-6′-yl]-5-cyanoopyridine-2-carboxamide] | 3400 nM
N#Cc1ccc(C(=O)Nc2ccc3c(c2)[C@@]2(CC3)N=C(N)OCC2(F)F)nc1 [Example 15, (R)—N-(2′-Amino-5′,5′-difluoro-2,3,5′,6′-tetrahydrospiro[indene-1,4′-[1,3]oxazine]-6-yl)-5-cyanopicolinamide] | 510 nM
NC1=N[C@@]2(CC(c3ccccc3)Oc3ccc(-c4cncc(Cl)c4)cc32)C(F)(F)CO1 (mixture of isomers) [Example 23, (2RS,4R)-6-(5-chloropyridin-3-yl)-5′,5′-difluoro-2-phenyl-5′,6′-dihydrospiro[chroman-4,4′-[1,3]oxazin]-2′-amine] | 420 nM
N#Cc1cccc(-c2ccc3c(c2)[C@@]2(CC3)N=C(N)OCC2(F)F)c1 [Example 10, (R)-3-(2′-Amino-5′,5′-difluoro-2,3,5′,6′-tetrahydrospiro[indene-1,4′-[1,3]oxazine]-6-yl)benzonitrile] | 960 nM
N#Cc1ccc(C(=O)Nc2ccc3c(c2)[C@@]2(CC(c4ccccc4)O3)N=C(N)OCC2(F)F)nc1 (single isomer, unassigned) [Example 37, N-((2R or 2S,4R)-2′-Amino-5′,5′-difluoro-2-phenyl-5′,6′-dihydrospiro[chroman-4,4′-[1,3]oxazine]-6-yl)-5-cyanopicolinamide] | 70 nM
NC1=N[C@@]2(CCS(=O)(=O)c3ccc(NC(=O)c4ccc(Cl)cn4)cc32)C(F)(F)CO1 [Example 45, N-[(4R)-2-amino-5,5-difluoro-1′,1′-dioxido-2′,3′,5,6-tetrahydrospiro[1,3-oxazine-4,4′-thiochromen]-6′-yl]-5-chloropyridine-2-carboxamide] | 6960 nM
NC1=N[C@@]2(CCOc3ccc(NC(=O)c4ccc(Cl)cn4)cc32)C(F)(F)COC1 [Example 50, (R)—N-(3′-Amino-6′,6′-difluoro-6′,7′-dihydro-2′H-spiro[chroman-4,5′-[1,4]oxazepine]-6-yl)-5-chloropicolinamide] | 2130 nM
NC1=N[C@@]2(CCc3ccc(NC(=O)c4ccc(Cl)cn4)cc32)C(F)(F)CO1 [Example 16, (R)—N-(2′-Amino-5′,5′-difluoro-2,3,5′,6′-tetrahydrospiro[indene-1,4′-[1,3]oxazine]-6-yl)-5-chloropicolinamide] | 2490 nM
NC1=N[C@@]2(CC(c3ccccc3)Oc3ccc(NC(=O)c4ccc(F)cn4)cc32)C(F)(F)CO1 (single isomer, unassigned) [Example 38, N-((2R or 2S,4R)-2′-Amino-5′,5′-difluoro-2-phenyl-5′,6′-dihydrospiro[chroman-4,4′-[1,3]oxazine]-6-yl)-5-fluoropicolinamide] | 510 nM
